The text below walks through data of patent US12252524B2, “GIP/GLP1 co-agonist compounds” (Eli Lilly and Company, priority 2018, dated 2025).

Numbered stars: 1 amine (or outer) side, 2 acyl side, 3 side chain; on linkers, the order of the positions; unused ones are H or OH. Square brackets hold non-standard residues; d marks the D form. Side chains are listed from the residue outwards. Peptide text beside a SMILES is read from it. * marks the point of attachment. C20 diacid = O=C(O)CCCCCCCCCCCCCCCCCCC(=O)*; C18 diacid = O=C(O)CCCCCCCCCCCCCCCCC(=O)*; γGlu = O=C(O)[C@H](CCC(=O)[*:2])N[*:1]; αMeY = C[C@](N)(Cc1ccc(O)cc1)C(=O)O; αMeL = CC(C)C[C@](C)(N)C(=O)O; Orn = NCCC[C@H](N)C(=O)O; AEEA = NCCOCCOCC(=O)O; Aib = CC(C)(N)C(=O)O

Test [1] deals with T1, human GLP-1R (Homo sapiens, UniProt P43220). Briefly: GLP-1R HEK293 cell membrane [35S]GTPγS binding assay. The class given is biochemical. Also on record: expressed in transfected cells; host or cells: HEK293 cells expressing human GLP-1R; membranes. The conditions noted are these: HEK293 cell membranes expressing human GLP-1R, [35S]GTPγS binding; read-out: hGLP1R GTPgS Rel EC50 nM (SEM, n). The essentials: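 Agonist-driven Gαs activation read as [35S]GTPγS ([…]) binding to receptor-expressing HEK293 membranes, 30 min at room temperature, pH 7.4. Detection by anti-Gαs immunocapture on scintillation beads; EC50 derived from four-parameter logistic concentration-response fit.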

In test [2] the target is T2, gastric inhibitory peptide receptor (GIPR) (Homo sapiens, UniProt P48546).
T2 sequence (P48546 22-466): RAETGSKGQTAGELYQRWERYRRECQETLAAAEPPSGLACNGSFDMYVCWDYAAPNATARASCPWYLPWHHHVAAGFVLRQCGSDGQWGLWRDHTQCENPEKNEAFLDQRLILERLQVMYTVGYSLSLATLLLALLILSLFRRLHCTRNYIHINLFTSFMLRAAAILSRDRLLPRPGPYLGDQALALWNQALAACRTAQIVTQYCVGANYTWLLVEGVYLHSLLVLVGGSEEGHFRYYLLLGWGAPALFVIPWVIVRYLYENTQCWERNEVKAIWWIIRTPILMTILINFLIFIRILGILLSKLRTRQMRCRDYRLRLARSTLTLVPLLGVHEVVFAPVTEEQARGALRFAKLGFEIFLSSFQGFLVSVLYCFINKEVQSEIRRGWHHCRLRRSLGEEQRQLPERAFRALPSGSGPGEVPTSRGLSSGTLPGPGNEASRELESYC
Briefly: cAMP pharmacological functional assay in presence of casein, hGIPR. Format: cell-based. The conditions noted are these: HEK293 cells expressing hGIPR, 0.1% Casein, geometric mean; read-out: hGIPR cAMP Rel EC50 nM (SEM, n).

For test [3], the target named is T1, human GLP-1R. Briefly: GLP-1R CHO cell β-arrestin recruitment assay. The settings on record: for EC50: CHO-K1 cells, PathHunter β-arrestin-2 recruitment, 0.1% casein, read-out: hGLP1R B-Arrestin2 Rel EC50 uM (SEM, n); for hGLP1R B-Arrestin2 % Top: normalized to GLP-1 maximum control. Further details: host or cells: CHO-K1 PathHunter cells, assay-ready frozen. Format: cell-based. The essentials:
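Peptide-induced β-arrestin-2 recruitment measured by enzyme-fragment complementation luminescence after 90 min at 37 °C plus 60 min detection at RT.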

The target in test [4] is human GLP-1 receptor (GLP-1R) (Homo sapiens, UniProt P43220). Briefly: cAMP pharmacological functional assay in presence of casein, hGLP-1R. The class given is cell-based. The settings on record: HEK293 cells expressing hGLP-1R, 0.1% Casein, geometric mean; read-out: hGLP1R cAMP Rel EC50 nM (SEM, n).
Sequence of human GLP-1 receptor (GLP-1R) (P43220 24-463): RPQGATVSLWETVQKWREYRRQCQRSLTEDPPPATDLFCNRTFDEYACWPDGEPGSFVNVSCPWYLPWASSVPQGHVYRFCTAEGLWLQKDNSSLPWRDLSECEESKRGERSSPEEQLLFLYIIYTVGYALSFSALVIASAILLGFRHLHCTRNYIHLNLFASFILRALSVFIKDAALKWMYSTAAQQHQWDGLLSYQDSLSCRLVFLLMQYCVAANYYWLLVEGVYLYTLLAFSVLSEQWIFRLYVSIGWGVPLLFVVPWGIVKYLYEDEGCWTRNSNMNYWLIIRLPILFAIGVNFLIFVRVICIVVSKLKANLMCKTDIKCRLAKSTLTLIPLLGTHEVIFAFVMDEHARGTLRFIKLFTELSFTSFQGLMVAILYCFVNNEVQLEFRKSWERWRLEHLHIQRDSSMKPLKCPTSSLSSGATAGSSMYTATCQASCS

T1 sequence (P43220 24-463): as above

Regarding `CC[C@H](C)[C@H](NC(=O)[C@H](CC(C)C)NC(=O)[C@](C)(Cc1ccc(O)cc1)NC(=O)[C@H](CCC(=O)O)NC(=O)[C@@H](NC(=O)[C@H](Cc1ccccc1)NC(=O)[C@H](C)NC(=O)C(C)(C)NC(=O)[C@H](CCC(N)=O)NC(=O)[C@H](C)NC(=O)[C@H](CCCCNC(=O)COCCOCCNC(=O)CC[C@H](NC(=O)CCCCCCCCCCCCCCCCCCC(=O)O)C(=O)O)NC(=O)[C@H](CCCCN)NC(=O)[C@H](CC(=O)O)NC(=O)[C@H](CC(C)C)NC(=O)[C@](C)(CC(C)C)NC(=O)[C@@H](NC(=O)[C@H](CO)NC(=O)[C@H](Cc1ccc(O)cc1)NC(=O)[C@H](CC(=O)O)NC(=O)[C@H](CO)NC(=O)[C@@H](NC(=O)[C@H](Cc1ccccc1)NC(=O)[C@@H](NC(=O)CNC(=O)[C@H](CCC(=O)O)NC(=O)C(C)(C)NC(=O)[C@H](N)Cc1ccc(O)cc1)[C@@H](C)O)[C@@H](C)O)[C@@H](C)CC)[C@@H](C)CC)C(=O)N[C@@H](C)C(=O)NCC(=O)NCC(=O)N1CCC[C@H]1C(=O)N[C@@H](CO)C(=O)N[C@@H](CO)C(=O)NCC(=O)N[C@@H](C)C(=O)N1CCC[C@H]1C(=O)N1CCC[C@H]1C(=O)N1CCC[C@H]1C(=O)N[C@@H](CO)C(N)=O` [Example 373] (H-[dY][Aib]EGTFTSDYSI[αMeL]LDKK([AEEA-γGlu-C20 diacid])AQ[Aib]AFIE[αMeY]LIAGGPSSGAPPPS-NH2), the EC50 is 0.336 nM at human GLP-1R [1], 0.185 nM in test [2], 0.00954 µM on human GLP-1R [3] and 0.436 nM in test [4]. On human GLP-1R [3], the “hGLP1R B-Arrestin2 % Top” value is 22.9%.

`CC[C@H](C)[C@H](NC(=O)[C@H](CC(C)C)NC(=O)[C@](C)(Cc1ccc(O)cc1)NC(=O)[C@H](CCC(=O)O)NC(=O)[C@@H](NC(=O)[C@H](Cc1ccccc1)NC(=O)[C@H](CCC(=O)O)NC(=O)C(C)(C)NC(=O)[C@H](CCC(N)=O)NC(=O)[C@H](C)NC(=O)[C@H](CCCCNC(=O)COCCOCCNC(=O)COCCOCCNC(=O)CC[C@H](NC(=O)CCCCCCCCCCCCCCCCC(=O)O)C(=O)O)NC(=O)[C@H](CCCCN)NC(=O)[C@H](CC(=O)O)NC(=O)[C@H](CC(C)C)NC(=O)[C@](C)(CC(C)C)NC(=O)[C@@H](NC(=O)[C@H](CO)NC(=O)[C@H](Cc1ccc(O)cc1)NC(=O)[C@H](CC(=O)O)NC(=O)[C@H](CO)NC(=O)[C@@H](NC(=O)[C@H](Cc1ccccc1)NC(=O)[C@@H](NC(=O)CNC(=O)[C@H](CCC(=O)O)NC(=O)C(C)(C)NC(=O)[C@H](N)Cc1ccc(O)cc1)[C@@H](C)O)[C@@H](C)O)[C@@H](C)CC)[C@@H](C)CC)C(=O)N[C@@H](C)C(=O)NCC(=O)NCC(=O)N1CCC[C@H]1C(=O)N[C@@H](CO)C(=O)N[C@@H](CO)C(=O)NCC(=O)N[C@@H](C)C(=O)N1CCC[C@H]1C(=O)N1CCC[C@H]1C(=O)N1CCC[C@H]1C(=O)N[C@@H](CO)C(N)=O` [Example 374] (H-[dY][Aib]EGTFTSDYSI[αMeL]LDKK([AEEA-AEEA-γGlu-C18 diacid])AQ[Aib]EFIE[αMeY]LIAGGPSSGAPPPS-NH2): the EC50 on human GLP-1R [1] is 0.345 nM; in test [2], 0.0468 nM; at human GLP-1R [3], 0.0218 µM; in test [4], 0.19 nM. The “hGLP1R B-Arrestin2 % Top” value on human GLP-1R [3] is reported as 34.7%.

In the case of `CC[C@H](C)[C@H](NC(=O)[C@H](CC(C)C)NC(=O)[C@](C)(Cc1ccc(O)cc1)NC(=O)[C@H](CCC(=O)O)NC(=O)[C@@H](NC(=O)[C@H](Cc1ccccc1)NC(=O)[C@H](CCC(=O)O)NC(=O)C(C)(C)NC(=O)[C@H](CCC(N)=O)NC(=O)[C@H](C)NC(=O)[C@H](CCCCNC(=O)COCCOCCNC(=O)COCCOCCNC(=O)CC[C@H](NC(=O)CCCCCCCCCCCCCCCCC(=O)O)C(=O)O)NC(=O)[C@H](CCCN)NC(=O)[C@H](CC(=O)O)NC(=O)[C@H](CC(C)C)NC(=O)[C@](C)(CC(C)C)NC(=O)[C@@H](NC(=O)[C@H](CO)NC(=O)[C@H](Cc1ccc(O)cc1)NC(=O)[C@H](CC(=O)O)NC(=O)[C@H](CO)NC(=O)[C@@H](NC(=O)[C@H](Cc1ccccc1)NC(=O)[C@@H](NC(=O)CNC(=O)[C@H](CCC(=O)O)NC(=O)C(C)(C)NC(=O)[C@H](N)Cc1ccc(O)cc1)[C@@H](C)O)[C@@H](C)O)[C@@H](C)CC)[C@@H](C)CC)C(=O)N[C@@H](C)C(=O)NCC(=O)NCC(=O)N1CCC[C@H]1C(=O)N[C@@H](CO)C(=O)N[C@@H](CO)C(=O)NCC(=O)N[C@@H](C)C(=O)N1CCC[C@H]1C(=O)N1CCC[C@H]1C(=O)N1CCC[C@H]1C(=O)N[C@@H](CO)C(N)=O` [Example 375] (H-[dY][Aib]EGTFTSDYSI[αMeL]LD[Orn]K([AEEA-AEEA-γGlu-C18 diacid])AQ[Aib]EFIE[αMeY]LIAGGPSSGAPPPS-NH2), the EC50 is 0.419 nM on human GLP-1R [1], 0.0471 nM in test [2], 0.0114 µM at human GLP-1R [3] and 0.152 nM in test [4]. Besides, the “hGLP1R B-Arrestin2 % Top” value on human GLP-1R [3] was found to be 24.2%.

Turning to `CC[C@H](C)[C@H](NC(=O)[C@H](CC(C)C)NC(=O)[C@](C)(Cc1ccc(O)cc1)NC(=O)[C@H](CCC(=O)O)NC(=O)[C@@H](NC(=O)[C@H](Cc1ccccc1)NC(=O)[C@H](C)NC(=O)C(C)(C)NC(=O)[C@H](CCC(N)=O)NC(=O)[C@H](C)NC(=O)[C@H](CCCCNC(=O)COCCOCCNC(=O)COCCOCCNC(=O)CC[C@H](NC(=O)CCCCCCCCCCCCCCCCC(=O)O)C(=O)O)NC(=O)[C@H](CCCCN)NC(=O)[C@H](CC(=O)O)NC(=O)[C@H](CC(C)C)NC(=O)[C@](C)(CC(C)C)NC(=O)[C@@H](NC(=O)[C@H](CO)NC(=O)[C@H](Cc1ccc(O)cc1)NC(=O)[C@H](CC(=O)O)NC(=O)[C@H](CO)NC(=O)[C@@H](NC(=O)[C@H](Cc1ccccc1)NC(=O)[C@@H](NC(=O)CNC(=O)[C@H](CCC(=O)O)NC(=O)C(C)(C)NC(=O)[C@H](N)Cc1ccc(O)cc1)[C@@H](C)O)[C@@H](C)O)[C@@H](C)CC)[C@@H](C)CC)C(=O)N[C@@H](C)C(=O)NCC(=O)NCC(=O)N1CCC[C@H]1C(=O)N[C@@H](CO)C(=O)N[C@@H](CO)C(=O)NCC(=O)N[C@@H](C)C(=O)N1CCC[C@H]1C(=O)N1CCC[C@H]1C(=O)N1CCC[C@H]1C(=O)N[C@@H](CO)C(N)=O` [Example 376] (H-[dY][Aib]EGTFTSDYSI[αMeL]LDKK([AEEA-AEEA-γGlu-C18 diacid])AQ[Aib]AFIE[αMeY]LIAGGPSSGAPPPS-NH2), the concentration for a half-maximal effect (EC50) is 0.326 nM on human GLP-1R [1], 0.0723 nM in test [2], 0.0123 µM on human GLP-1R [3] and 0.17 nM in test [4]. Also, the “hGLP1R B-Arrestin2 % Top” value at human GLP-1R [3] stood at 25.6%.

In the case of `CC[C@H](C)[C@H](NC(=O)[C@H](CC(C)C)NC(=O)[C@](C)(Cc1ccc(O)cc1)NC(=O)[C@H](CCC(=O)O)NC(=O)[C@@H](NC(=O)[C@H](Cc1ccccc1)NC(=O)[C@H](C)NC(=O)C(C)(C)NC(=O)[C@H](CCC(N)=O)NC(=O)[C@H](C)NC(=O)[C@H](CCCCNC(=O)COCCOCCNC(=O)COCCOCCNC(=O)CC[C@H](NC(=O)CCCCCCCCCCCCCCCCC(=O)O)C(=O)O)NC(=O)[C@H](CCCN)NC(=O)[C@H](CC(=O)O)NC(=O)[C@H](CC(C)C)NC(=O)[C@](C)(CC(C)C)NC(=O)[C@@H](NC(=O)[C@H](CO)NC(=O)[C@H](Cc1ccc(O)cc1)NC(=O)[C@H](CC(=O)O)NC(=O)[C@H](CO)NC(=O)[C@@H](NC(=O)[C@H](Cc1ccccc1)NC(=O)[C@@H](NC(=O)CNC(=O)[C@H](CCC(=O)O)NC(=O)C(C)(C)NC(=O)[C@H](N)Cc1ccc(O)cc1)[C@@H](C)O)[C@@H](C)O)[C@@H](C)CC)[C@@H](C)CC)C(=O)N[C@@H](C)C(=O)NCC(=O)NCC(=O)N1CCC[C@H]1C(=O)N[C@@H](CO)C(=O)N[C@@H](CO)C(=O)NCC(=O)N[C@@H](C)C(=O)N1CCC[C@H]1C(=O)N1CCC[C@H]1C(=O)N1CCC[C@H]1C(=O)N[C@@H](CO)C(N)=O` [Example 377] (H-[dY][Aib]EGTFTSDYSI[αMeL]LD[Orn]K([AEEA-AEEA-γGlu-C18 diacid])AQ[Aib]AFIE[αMeY]LIAGGPSSGAPPPS-NH2), the EC50 was 0.356 nM at human GLP-1R [1], 0.0544 nM in test [2], 0.00532 µM on human GLP-1R [3] and 0.136 nM in test [4]. In addition, on human GLP-1R [3], the “hGLP1R B-Arrestin2 % Top” value is reported as 16.7%.
